Test results: ChEMBL document CHEMBL5500412, “Discovery of Highly Selective, Potent, Covalent, and Orally Bioavailable Factor XIIa Inhibitors for the Treatment of Thrombo-Inflammation” (J Med Chem, 2024)
Blank lines part the entries; values can stand above or below the compound they belong to. Calls of active or inactive are those of the source. The calls are words filed in the database; no cut-off is given here.

Assays:
[1] = biological target: Tissue-type plasminogen activator (Homo sapiens, UniProt P00750); test: Inhibition of tPA (unknown origin) using H-D-lle-Pro-Arg-pNA-2HCl as chromogenic substrate incubated for 20 mins followed by substrate addition by spectrophotometric analysis
Sequence of Tissue-type plasminogen activator (P00750 whole entry): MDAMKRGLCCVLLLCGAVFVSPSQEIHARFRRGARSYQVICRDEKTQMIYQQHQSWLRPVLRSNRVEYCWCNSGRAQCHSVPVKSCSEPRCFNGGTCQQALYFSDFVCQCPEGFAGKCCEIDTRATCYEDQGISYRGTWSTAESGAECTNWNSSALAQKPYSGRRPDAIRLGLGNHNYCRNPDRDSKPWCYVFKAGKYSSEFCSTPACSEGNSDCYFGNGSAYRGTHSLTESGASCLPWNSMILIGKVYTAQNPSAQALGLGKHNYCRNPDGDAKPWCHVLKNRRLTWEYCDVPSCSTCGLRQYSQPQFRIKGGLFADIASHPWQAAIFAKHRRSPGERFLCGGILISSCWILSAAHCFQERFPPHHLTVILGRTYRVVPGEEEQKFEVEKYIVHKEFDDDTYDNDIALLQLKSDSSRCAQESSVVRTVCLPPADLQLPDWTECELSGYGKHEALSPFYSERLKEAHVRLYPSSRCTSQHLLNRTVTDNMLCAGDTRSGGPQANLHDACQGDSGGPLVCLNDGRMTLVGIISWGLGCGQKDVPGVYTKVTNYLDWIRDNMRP

Mus musculus [2] = test: Antiinflammatory activity in carrageenan-induced thrombosis in male BALB/c mouse model assessed as reduction in IL-1 beta level administered as oral dose by ELISA method; assay type: functional, organism-based; settings: dose 10-30 mg/kg
Plasma = test: Anticoagulant activity in human plasma assessed as prolongation of activated partial thromboplastin time incubated for 2 mins by aPTT reagent based assay; assay type: functional
Coagulation factor XII [3] = biological target: T1, Coagulation factor XII (Homo sapiens, UniProt P00748); test: Inhibition of FXIIa (unknown origin) using H-D-Pro-Phe-Arg-pNA as substrate incubated for 20 mins followed by substrate addition by spectrophotometric analysis
T1 sequence (P00748 whole entry): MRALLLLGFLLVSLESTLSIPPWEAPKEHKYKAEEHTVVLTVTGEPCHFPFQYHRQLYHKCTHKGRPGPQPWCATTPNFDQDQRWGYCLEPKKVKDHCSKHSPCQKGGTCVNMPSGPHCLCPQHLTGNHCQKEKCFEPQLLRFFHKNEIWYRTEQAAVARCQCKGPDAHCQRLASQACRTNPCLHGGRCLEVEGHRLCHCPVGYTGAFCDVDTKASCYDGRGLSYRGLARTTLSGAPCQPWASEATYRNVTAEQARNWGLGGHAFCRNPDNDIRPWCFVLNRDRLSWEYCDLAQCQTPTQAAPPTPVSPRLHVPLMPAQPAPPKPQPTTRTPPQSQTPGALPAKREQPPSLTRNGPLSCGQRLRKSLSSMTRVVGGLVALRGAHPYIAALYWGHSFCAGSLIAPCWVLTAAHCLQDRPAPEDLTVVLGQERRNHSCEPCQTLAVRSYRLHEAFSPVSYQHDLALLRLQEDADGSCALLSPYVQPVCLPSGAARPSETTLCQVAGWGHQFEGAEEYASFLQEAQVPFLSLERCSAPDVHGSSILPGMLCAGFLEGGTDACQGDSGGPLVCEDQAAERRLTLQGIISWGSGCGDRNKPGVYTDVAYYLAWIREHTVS

Smooth muscle cell = test: Ant-icalcification activity in human aortic Smooth muscle cell at 10 uM measured after 14 days with replacement of fresh medium for every 2 to 3 days by Alizarin red S staining based analysis; assay type: functional; settings: time 14.0 day
[4] = Toxicity in BALB/c mouse assessed as effect on ALP level in serum at 60 to 100 mg/kg, po measured after 14 days; assay type: organism-based; settings: in vivo, 336 h, dose 60-100 mg/kg, time 14 day
[5] = biological target: T2, Coagulation factor XII (Homo sapiens) (UniProt P00748); test: Binding affinity to FXIIa (unknown origin) assessed as Kinact/Ki using H-D-Pro-Phe-Arg-pNA.2HCl as substrate by spectrophotometric analysis
T2 sequence (whole entry): T1 sequence (P00748 whole entry)

[6] = Toxicity in BALB/c mouse assessed as effect on AST level in serum at 60 to 100 mg/kg, po measured after 14 days; assay type: organism-based; settings: in vivo, 336 h, dose 60-100 mg/kg, time 14 day
[7] = biological target: T2, Coagulation factor XII (Homo sapiens); test: Binding affinity to FXIIa (unknown origin) assessed as inactivation rate using H-D-Pro-Phe-Arg-pNA.2HCl as substrate by spectrophotometric analysis
[8] = Toxicity in BALB/c mouse assessed as effect on UREA level in serum at 60 to 100 mg/kg, po measured after 14 days; assay type: organism-based; settings: in vivo, 336 h, dose 60-100 mg/kg, time 14 day
[9] = Toxicity in BALB/c mouse assessed as effect on spleen at 60 to 100 mg/kg, po measured after 14 days by H and E staining based analysis; assay type: organism-based; settings: in vivo, 336 h, dose 60-100 mg/kg, time 14 day
[10] = Toxicity in BALB/c mouse assessed as effect on kidney at 60 to 100 mg/kg, po measured after 14 days by H and E staining based analysis; assay type: organism-based; settings: in vivo, 336 h, dose 60-100 mg/kg, time 14 day
Mus musculus [11] = test: Antiinflammatory activity in carrageenan-induced thrombosis in male BALB/c mouse model assessed as reduction in IL-6 level at 10 to 30 mg/kg, po by ELISA method; assay type: functional, organism-based; settings: dose 10-30 mg/kg
[12] = Toxicity in BALB/c mouse assessed as effect on ALT level in serum at 60 to 100 mg/kg, po measured after 14 days; assay type: organism-based; settings: in vivo, 336 h, dose 60-100 mg/kg, time 14 day
[13] = Half life in BALB/c mouse at 1 mg/kg, iv measured upto 24 hrs by LC-MS/MS analysis; assay type: ADME, organism-based; settings: in vivo
[14] = Toxicity in BALB/c mouse assessed as effect on liver at 60 to 100 mg/kg, po measured after 14 days by H and E staining based analysis; assay type: organism-based; settings: in vivo, 336 h, dose 60-100 mg/kg, time 14 day
[15] = Toxicity in BALB/c mouse assessed as effect on HBDH level in serum at 60 to 100 mg/kg, po measured after 14 days; assay type: organism-based; settings: in vivo, 336 h, dose 60-100 mg/kg, time 14 day
[16] = Clearance in BALB/c mouse at 1 mg/kg, iv measured upto 24 hrs by LC-MS/MS analysis; assay type: ADME, organism-based; settings: in vivo
[17] = Toxicity in BALB/c mouse assessed as effect on UA level in serum at 60 to 100 mg/kg, po measured after 14 days; assay type: organism-based; settings: in vivo, 336 h, dose 60-100 mg/kg, time 14 day
[18] = AUC (0 to infinity) in BALB/c mouse at 1 mg/kg, iv measured upto 24 hrs by LC-MS/MS analysis; assay type: ADME, organism-based; settings: in vivo
[19] = Toxicity in BALB/c mouse assessed as effect on lung at 60 to 100 mg/kg, po measured after 14 days by H and E staining based analysis; assay type: organism-based; settings: in vivo, 336 h, dose 60-100 mg/kg, time 14 day
[20] = Apparent volume of distribution in BALB/c mouse at 1 mg/kg, iv measured upto 24 hrs by LC-MS/MS analysis; assay type: ADME, organism-based; settings: in vivo, read-out: Vz
[21] = Oral bioavailability in BALB/c mouse at 5 mg/kg measured upto 24 hrs by LC-MS/MS analysis; assay type: ADME, organism-based; settings: in vivo
[22] = Toxicity in BALB/c mouse assessed as prolongation of bleeding time at 60 mg/kg, po measured after 90 mins; assay type: organism-based; settings: in vivo, 1.5 h
[23] = Toxicity in BALB/c mouse assessed as effect on heart at 60 to 100 mg/kg, po measured after 14 days by H and E staining based analysis; assay type: organism-based; settings: in vivo, 336 h, dose 60-100 mg/kg, time 14 day
[24] = Toxicity in BALB/c mouse assessed as effect on LDH level in serum at 60 to 100 mg/kg, po measured after 14 days; assay type: organism-based; settings: in vivo, 336 h, dose 60-100 mg/kg, time 14 day
Coagulation factor XII [25] = biological target: T1, Coagulation factor XII; test: Binding affinity to FXIIa (unknown origin) assessed as inhibition constant using H-D-Pro-Phe-Arg-pNA.2HCl as substrate by spectrophotometric analysis
[26] = biological target: T2, Coagulation factor XII (Homo sapiens); test: Covalent inhibition of FXIIa (unknown origin) at 20 to 40 nM measured after 10 mins; settings: dose 20-40 nM
[27] = Toxicity in BALB/c mouse assessed as effect on CREA level in serum at 60 to 100 mg/kg, po measured after 14 days; assay type: organism-based; settings: in vivo, 336 h, dose 60-100 mg/kg, time 14 day
[28] = AUC (0 to infinity) in BALB/c mouse at 5 mg/kg, po measured upto 24 hrs by LC-MS/MS analysis; assay type: ADME, organism-based; settings: in vivo
[29] = MRT (0 to infinity) in BALB/c mouse at 1 mg/kg, iv measured upto 24 hrs by LC-MS/MS analysis; assay type: ADME, organism-based; settings: in vivo

IC50 [1]: > 25000 nM
IC50 (Coagulation factor XII [3]): 37 nM
SMILES: CC(C)N1CCN(c2ccc(C(=O)n3nc(-c4ccccn4)nc3N)c3ccccc23)CC1
Activity (Mus musculus [2]): Dose-Dependent Effect
EC1.5 (Plasma): 68 µM
Activity (Smooth muscle cell): Active

K [5]: 2.37 10^6/M/min
Kinact [7]: 0.027 min⁻¹
half-life [13]: 0.75 h
IC50 [1]: > 25000 nM
CL [16]: 1270 mL/min/kg
AUC(0-inf) [18]: 13.3 ng·h/mL
Vd [20]: 105 L/kg
bioavailability [21]: 28.2%
Ki (Coagulation factor XII [25]): 11.4 nM
inhibition [26]: Active
AUC(0-inf) [28]: 17.8 ng·h/mL
MRT inf [29]: 1.58 h
SMILES: CC(C)N1CCCN(c2ccc(C(=O)n3nc(-c4ccccn4)nc3N)c3ccccc23)CC1
Activity [4]: Non-Toxic
Activity [6]: Non-Toxic
Activity [8]: Non-Toxic
Activity [9]: Non-Toxic
Activity [10]: Non-Toxic
Activity (Mus musculus [11]): Active
Activity [12]: Non-Toxic
Activity [14]: Non-Toxic
Activity [15]: Non-Toxic
Activity [17]: Non-Toxic
Activity [19]: Non-Toxic
EC1.5 (Plasma): 37 µM
Activity [22]: Non-Toxic
Activity [23]: Non-Toxic
Activity [24]: Non-Toxic
Activity [27]: Non-Toxic
